Measurements from US20050106242A1, “Melt blend dispersions” (priority 2003, published 2005).
≈ marks a conversion by molar mass, not a printed value.

How the values were obtained:
[1] = Particle size of progesterone precipitation in AIF (Horiba LA-910 laser scattering); format: physicochemical; settings: ~4 mg progesterone in 15 ml AIF, shaken at 37° C.; FIG. 1 and FIG. 2
Protocol: Samples as indicated below containing ˜4 mg of progesterone were added to 15 ml AIF and then were shaken in a water bath at 37° C. The particle size of the progesterone precipitation was measured with Horiba LA-910 laser scattering particle size analyzer.

[2] = Water solubility of progesterone in artificial intestinal fluid; format: physicochemical; settings: fassgf or other biorelevant; at 37° C. in artificial intestinal fluid (AIF)

- mean particle size [1]: 72.4 μm
- solubility [2]: 12 µg/mL (≈ 38.2 µM)
Structure (SMILES): CC(=O)[C@H]1CC[C@H]2[C@@H]3CCC4=CC(=O)CC[C@]4(C)[C@H]3CC[C@]12C [Progesterone, pregn-4-ene-3,20-dione]
